Earlier results, collected in patent US20220304955A1 (Nacuity Pharmaceuticals, Inc., priority 2021, published 2022).

Biological target: T1, glutamate cysteine ligase (GCL, EC 6.3.2.2) (Homo sapiens, UniProt P48506)
T1 sequence (P48506 1-637): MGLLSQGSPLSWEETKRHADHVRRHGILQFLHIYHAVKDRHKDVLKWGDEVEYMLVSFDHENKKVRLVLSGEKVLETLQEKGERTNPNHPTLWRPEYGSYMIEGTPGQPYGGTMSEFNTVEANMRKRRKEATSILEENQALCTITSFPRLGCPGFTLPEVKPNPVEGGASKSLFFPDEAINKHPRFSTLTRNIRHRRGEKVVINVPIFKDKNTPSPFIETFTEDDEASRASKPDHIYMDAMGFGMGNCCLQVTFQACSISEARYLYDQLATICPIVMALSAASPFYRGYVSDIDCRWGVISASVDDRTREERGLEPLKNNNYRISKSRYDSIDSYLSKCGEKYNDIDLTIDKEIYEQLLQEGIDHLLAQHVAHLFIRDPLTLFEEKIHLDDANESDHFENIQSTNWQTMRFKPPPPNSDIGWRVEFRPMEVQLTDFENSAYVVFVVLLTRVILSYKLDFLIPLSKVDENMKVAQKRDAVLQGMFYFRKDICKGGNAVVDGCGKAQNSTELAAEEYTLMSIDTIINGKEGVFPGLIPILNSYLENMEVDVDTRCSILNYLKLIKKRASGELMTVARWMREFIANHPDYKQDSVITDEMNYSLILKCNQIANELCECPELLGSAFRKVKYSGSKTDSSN
T1 sequence (P48507 1-274 partner): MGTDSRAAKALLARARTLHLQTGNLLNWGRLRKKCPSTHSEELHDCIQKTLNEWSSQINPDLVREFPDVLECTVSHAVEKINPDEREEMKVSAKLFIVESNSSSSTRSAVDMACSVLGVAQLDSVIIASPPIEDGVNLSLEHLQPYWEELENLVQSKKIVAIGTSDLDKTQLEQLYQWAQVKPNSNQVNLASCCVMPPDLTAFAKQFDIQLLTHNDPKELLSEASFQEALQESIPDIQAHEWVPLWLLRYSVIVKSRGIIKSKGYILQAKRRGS
Details: read-out: apparent Km; cited from earlier work

N[C@@H](CS)C(=O)O [cysteine, L-cysteine]
Km: 100 to 300 µM
